# Experimental data: patent US9580444B2, “Polycyclic pyrazolinone derivative and herbicide comprising same as effective component thereof” (priority 2013, dated 2017)
# How the values were obtained:
# Format in all cases: in vivo
# [1] = test system: Abutilon theophrasti (velvetleaf); assay: Test Example-4: herbicidal effect by a foliage treatment after weeds are generated under upland field conditions; conditions: 500 g a.i/ha, foliage treatment after emergence, about 14 days after treatment, score 0-5
# Summary of the method: (§1)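 Compounds were applied as diluted formulations by foliar spray (4000 L water/ha) to 14-day-old plants grown in upland soil. Weed control and corn phytotoxicity were each graded 0 to 5 around 14 days after spraying.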
# [2] = test system: Amaranthus viridis (green amaranthus); assay: as above; conditions: 500 g a.i/ha, foliage treatment after emergence, about 14 days after treatment, score 0-5
# Summary of the method: as §1
# [3] = test system: Chenopodium album (common lambsquarters); assay: as above; conditions: 500 g a.i/ha, foliage treatment after emergence, about 14 days after treatment, score 0-5
# Summary of the method: as §1
# [4] = test system: Scirpus juncoides (bulrush); assay: Test Example-1: herbicidal effect by a treatment before weeds are generated under submerged conditions; conditions: 500 g a.i/ha, pre-emergence treatment, about 15 days after treatment, score 0-5
# Summary of the method: (§2)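 Flooded paddy-soil cups, seeded and treated by submersion application on sowing day; rated 0–5 ~15 d later.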
# [5] = test system: Cyperus difformis (smallflower umbrella plant); assay: as above; conditions: 500 g a.i/ha, pre-emergence treatment, about 15 days after treatment, score 0-5
# Summary of the method: as §2
# [6] = test system: other annual broad leaf weeds (Lindernia procumbens, Rotala indica, Elatine triandra); assay: as above; conditions: 500 g a.i/ha, pre-emergence treatment, about 15 days after treatment, score 0-5
# Summary of the method: as §2
# [7] = test system: Monochoria vaginalis (monochoria); assay: as above; conditions: 500 g a.i/ha, pre-emergence treatment, about 15 days after treatment, score 0-5
# Summary of the method: as §2
# [8] = test system: Eleocharis acicularis (needle spikerush); assay: as above; conditions: 500 g a.i/ha, pre-emergence treatment, about 15 days after treatment, score 0-5
# Summary of the method: as §2
# [9] = test system: Echinochloa oryzicola (barnyard grass); assay: as above; conditions: 500 g a.i/ha, pre-emergence treatment, about 15 days after treatment, score 0-5
# Summary of the method: as §2
# corn [10] = assay: Test Example-4: phytotoxicity by a foliage treatment after weeds are generated under upland field conditions; conditions: 500 g a.i/ha, foliage treatment after emergence, about 14 days after treatment, score 0-5
# Summary of the method: as §1
# [11] = test system: Amaranthus viridis (green amaranthus); assay: Test Example-2: herbicidal effect by a soil treatment before weeds are generated under upland field conditions; conditions: application amount 500 g a.i/ha, soil spray treatment before weeds are generated, about 21 days after the treatment, score 0 to 5
# Excerpt: (§3) Using the formulation prepared according to the methods described above, the herbicidal effect of the bicyclic pyrazolinone derivative of the invention according to the methods shown in Test Examples below was examined. The herbicidal effect with respect to the test weeds or the phytotoxicity with respect to the test crops was examined according to the following criteria, and evaluated in six stage scores of 0 to 5. A vat having an area of 81 cm^2 and a depth of 3.5 cm was filled with upland soil, then, seeds of Amaranthus viridis (green amaranthus), Chenopodium album (common lambsquarters), and corn were seeded thereto, and the seeds were covered with soil of about 0.5 cm. Next day, a wettable powder or an emulsifiable concentrate of the compound of the present invention prepared according to Formulation Example was diluted, and a spray treatment was uniformly performed on the covered oil so as to be a predetermined dosage. The herbicidal effect with respect to the test weeds and the phytotoxicity with respect to corn about 21 days after the treatment were evaluated according to the evaluation criteria in six stages of 0 to 5 described above.
# [12] = test system: Chenopodium album (common lambsquarters); assay: as above; conditions: application amount 500 g a.i/ha, soil spray treatment before weeds are generated, about 21 days after the treatment, score 0 to 5
# Excerpt: as §3
# corn [13] = assay: Test Example-2: phytotoxicity by a soil treatment before weeds are generated under upland field conditions; conditions: application amount 500 g a.i/ha, soil spray treatment before weeds are generated, about 21 days after the treatment, score 0 to 5
# Excerpt: as §3
Structure (SMILES),Herbicidal effect Abutilon theophrast [1],Herbicidal effect Amaranthus viridis [2],Herbicidal effect Chenopodium album [3],Herbicidal effect Scirpus juncoides [4],Herbicidal effect Cyperus difformis [5],Herbicidal effect Broadleaf weed [6],Herbicidal effect Monochoria vaginalis [7],Herbicidal effect Eleocharis acicularis [8],Herbicidal effect Echinochloa oryzicola [9],Phytotoxicity Corn (corn [10]),Herbicidal effect Amaranthus viridis [11],Herbicidal effect Chenopodium album [12],Phytotoxicity Corn (corn [13])
C=C(C)COc1cc(-c2c(Cl)n3n(c2=O)CCCC3)c(F)cc1Cl [Example 1-214],5 (Herbicidal effect/phytotoxicity was 90% or greater),5 (Herbicidal effect/phytotoxicity was 90% or greater),5 (Herbicidal effect/phytotoxicity was 90% or greater),5 (Herbicidal effect/phytotoxicity was 90% or greater),5 (Herbicidal effect/phytotoxicity was 90% or greater),5 (Herbicidal effect/phytotoxicity was 90% or greater),5 (Herbicidal effect/phytotoxicity was 90% or greater),5 (Herbicidal effect/phytotoxicity was 90% or greater),5 (Herbicidal effect/phytotoxicity was 90% or greater),2 (Herbicidal effect/phytotoxicity was 30% to 50%),5 (Herbicidal effect/phytotoxicity was 90% or greater),5 (Herbicidal effect/phytotoxicity was 90% or greater),0 (Herbicidal effect/phytotoxicity was 0% to 10%)
O=c1c(-c2cc(OC3CCCC3)c(Cl)cc2F)c(Cl)n2n1CCCC2 [Example 1-181],5 (Herbicidal effect/phytotoxicity was 90% or greater),5 (Herbicidal effect/phytotoxicity was 90% or greater),5 (Herbicidal effect/phytotoxicity was 90% or greater),5 (Herbicidal effect/phytotoxicity was 90% or greater),5 (Herbicidal effect/phytotoxicity was 90% or greater),5 (Herbicidal effect/phytotoxicity was 90% or greater),5 (Herbicidal effect/phytotoxicity was 90% or greater),5 (Herbicidal effect/phytotoxicity was 90% or greater),5 (Herbicidal effect/phytotoxicity was 90% or greater),1 (Herbicidal effect/phytotoxicity was 10% to 30%),5 (Herbicidal effect/phytotoxicity was 90% or greater),5 (Herbicidal effect/phytotoxicity was 90% or greater),0 (Herbicidal effect/phytotoxicity was 0% to 10%)
C#CCOc1cc(-c2c(Cl)n3n(c2=O)CCCC3)c(Cl)cc1Cl [Example 1-302],5 (Herbicidal effect/phytotoxicity was 90% or greater),5 (Herbicidal effect/phytotoxicity was 90% or greater),5 (Herbicidal effect/phytotoxicity was 90% or greater),5 (Herbicidal effect/phytotoxicity was 90% or greater),5 (Herbicidal effect/phytotoxicity was 90% or greater),5 (Herbicidal effect/phytotoxicity was 90% or greater),5 (Herbicidal effect/phytotoxicity was 90% or greater),5 (Herbicidal effect/phytotoxicity was 90% or greater),5 (Herbicidal effect/phytotoxicity was 90% or greater),1 (Herbicidal effect/phytotoxicity was 10% to 30%),5 (Herbicidal effect/phytotoxicity was 90% or greater),5 (Herbicidal effect/phytotoxicity was 90% or greater),2 (Herbicidal effect/phytotoxicity was 30% to 50%)
C#CCOc1cc(-c2c(Cl)n3n(c2=O)CCOCC3)c(F)cc1F [Example 1-368],5 (Herbicidal effect/phytotoxicity was 90% or greater),5 (Herbicidal effect/phytotoxicity was 90% or greater),5 (Herbicidal effect/phytotoxicity was 90% or greater),5 (Herbicidal effect/phytotoxicity was 90% or greater),5 (Herbicidal effect/phytotoxicity was 90% or greater),5 (Herbicidal effect/phytotoxicity was 90% or greater),5 (Herbicidal effect/phytotoxicity was 90% or greater),5 (Herbicidal effect/phytotoxicity was 90% or greater),5 (Herbicidal effect/phytotoxicity was 90% or greater),1 (Herbicidal effect/phytotoxicity was 10% to 30%),5 (Herbicidal effect/phytotoxicity was 90% or greater),5 (Herbicidal effect/phytotoxicity was 90% or greater),0 (Herbicidal effect/phytotoxicity was 0% to 10%)
C=C(Cl)COc1cc(-c2c(Cl)n3n(c2=O)CCCC3)c(F)cc1Cl [Example 1-369],5 (Herbicidal effect/phytotoxicity was 90% or greater),5 (Herbicidal effect/phytotoxicity was 90% or greater),5 (Herbicidal effect/phytotoxicity was 90% or greater),5 (Herbicidal effect/phytotoxicity was 90% or greater),5 (Herbicidal effect/phytotoxicity was 90% or greater),5 (Herbicidal effect/phytotoxicity was 90% or greater),5 (Herbicidal effect/phytotoxicity was 90% or greater),5 (Herbicidal effect/phytotoxicity was 90% or greater),5 (Herbicidal effect/phytotoxicity was 90% or greater),1 (Herbicidal effect/phytotoxicity was 10% to 30%),5 (Herbicidal effect/phytotoxicity was 90% or greater),5 (Herbicidal effect/phytotoxicity was 90% or greater),0 (Herbicidal effect/phytotoxicity was 0% to 10%)
C#CC(C)Oc1cc(-c2c(Cl)n3n(c2=O)CCOCC3)c(F)cc1Cl (stereo not shown) [Example 1-245],5 (Herbicidal effect/phytotoxicity was 90% or greater),5 (Herbicidal effect/phytotoxicity was 90% or greater),5 (Herbicidal effect/phytotoxicity was 90% or greater),5 (Herbicidal effect/phytotoxicity was 90% or greater),5 (Herbicidal effect/phytotoxicity was 90% or greater),5 (Herbicidal effect/phytotoxicity was 90% or greater),5 (Herbicidal effect/phytotoxicity was 90% or greater),5 (Herbicidal effect/phytotoxicity was 90% or greater),5 (Herbicidal effect/phytotoxicity was 90% or greater),1 (Herbicidal effect/phytotoxicity was 10% to 30%),5 (Herbicidal effect/phytotoxicity was 90% or greater),5 (Herbicidal effect/phytotoxicity was 90% or greater),0 (Herbicidal effect/phytotoxicity was 0% to 10%)
CC(C)Oc1cc(-c2c(Cl)n3n(c2=O)CCCC3)c(F)cc1Cl [Example 1-151],5 (Herbicidal effect/phytotoxicity was 90% or greater),5 (Herbicidal effect/phytotoxicity was 90% or greater),5 (Herbicidal effect/phytotoxicity was 90% or greater),5 (Herbicidal effect/phytotoxicity was 90% or greater),5 (Herbicidal effect/phytotoxicity was 90% or greater),5 (Herbicidal effect/phytotoxicity was 90% or greater),5 (Herbicidal effect/phytotoxicity was 90% or greater),5 (Herbicidal effect/phytotoxicity was 90% or greater),5 (Herbicidal effect/phytotoxicity was 90% or greater),1 (Herbicidal effect/phytotoxicity was 10% to 30%),5 (Herbicidal effect/phytotoxicity was 90% or greater),5 (Herbicidal effect/phytotoxicity was 90% or greater),0 (Herbicidal effect/phytotoxicity was 0% to 10%)
